According to patent publication US4634707A, “5-Pyrimidinecarboxamides and treatment of leukemia and tumors therewith” (Uniroyal Chemical Company, priority 1984, dated 1987):

Tested on: L1210 leukemia
Assay: NCI 3LE31, i.p.-implanted L1210 lymphoid leukemia
Format: in vivo, DBA/2 mice
Settings: for activity in i.p.-implanted lymphoid leukemia test (in words): 3LE31, reproducible T/C of 150% or higher is considered significant activity; for response vs control in vivo at 6.25 mg/kg: 6.25 mg/kg i.p. daily for nine days; for response vs control in vivo at 12.5 mg/kg: 12.5 mg/kg i.p. daily for nine days
Description: The spectrum of antitumor activity of the compound of Example 1 was determined employing a number of standard National Cancer Institute (NCI) protocols. The antitumor activity was determined in vivo against several different tumors, employing various treatment schedules and routes of administration.
Samples of the test compounds of Examples 1-10 and a number of structurally-related control compounds were tested in accordance with National Cancer Institute test protocol 3LE31 (NCI Protocol 1.100, Cancer Chemotherapy Reports Part 3, Vol. 3, No. 2, September 1972) to determine the effects of the several compounds on i.p.-implanted L1210 leukemia (J. Nat'l. Cancer Inst. 13(5):1328, 1953). Each test involved implantation of the leukemia cells in six DBA/2 mice, one sex per experiment, the male mice weighing a minimum of 18 grams and the female mice weighing a minimum of 17 grams, and all of the test animals being within a three gram weight range. The test compound was administered by i.p. injections, in 0.1 ml. doses of diluted ascitic fluid (10^5 cells per dose), commencing one day after the tumor implant and continuing daily for nine days.
The test animals were weighed and survivors recorded on a regular basis during a thirty day test period. The ratio of survival time for the treated and control animals (T/C) was determined as a percentage.
The tests were carried out at varying dosage levels and with varying numbers of repetitions, depending upon the results obtained with each test compoud. […] A reproducible T/C of 150% or higher is considered significant activity.
The number of mice "cured", viz., those surviving from each animal test group after the thirty day test period, is indicated in parenthesis following the T/C percentage data in Table III below: […]

[1] = 200 mg/kg i.p. daily for nine days
[2] = Mus musculus, L1210, ip, 25 mg/kg i.p. daily for nine days, read-out: T/C % (survival time treated/control)
[3] = Mus musculus, L1210, ip, 50 mg/kg i.p. daily for nine days, read-out: T/C % (survival time treated/control)
[4] = Mus musculus, L1210, ip, 100 mg/kg i.p. daily for nine days, read-out: T/C % (survival time treated/control)
[5] = Mus musculus, L1210, ip, 400 mg/kg i.p. daily for nine days, read-out: T/C % (survival time treated/control)
[6] = Mus musculus, L1210, ip, 200 mg/kg i.p. daily for nine days, read-out: T/C % (survival time treated/control)
[7] = 50 mg/kg i.p. daily for nine days
[8] = 100 mg/kg i.p. daily for nine days
[9] = 25 mg/kg i.p. daily for nine days
[10] = Mus musculus, L1210, ip, read-out: T/C % (survival time treated/control)

| Structure (SMILES) | T/C % (survival time treated/control) [1] | response vs control in vivo at 25 mg/kg [2] [%] | response vs control in vivo at 50 mg/kg [3] [%] | response vs control in vivo at 100 mg/kg [4] [%] | response vs control in vivo at 200 mg/kg [6] [%] | further results |
| --- | --- | --- | --- | --- | --- | --- |
| O=C(Nc1ccccc1)c1c(O)[nH]c(=S)n(-c2ccccc2)c1=O [Control O] | Toxic | 104 | 115 | 123 |  |  |
| O=C(Nc1ccc(F)cc1)c1c(O)[nH]c(=S)[nH]c1=O [Example 5, N-(4-fluorophenyl)-1,2,3,4-tetrahydro-6-hydroxy-4-oxo-2-thioxo-5-pyrimidinecarboxamide] | Toxic | 111 | 112 | 133 |  | activity in i.p.-implanted lymphoid leukemia test (in words): With the exception of the compound of Example 5, the materials of the other examples similarly exhibited significant activity |
| O=C(Nc1ccccc1)c1c(O)n(-c2ccccc2)c(=S)n(-c2ccccc2)c1=O [Control S] |  | 97 | 100 |  |  |  |
| O=C(Nc1ccccc1)c1c(O)[nH]c(=O)[nH]c1=O [Control C] |  |  |  |  |  | activity in i.p.-implanted lymphoid leukemia test (in words): exhibited significant activity; response vs control in vivo at 400 mg/kg [5]: 233% |
| O=c1[nH]c(=S)[nH]c(O)c1C(=S)Nc1ccccc1 [Control W] |  | 101 | 102 | 94 | 103 |  |
| COc1ccc(NC(=O)c2c(O)[nH]c(=O)[nH]c2=O)cc1 [Control F] |  | 109 | 105 | 105 | 117 |  |
| Cn1c(O)c(C(=O)Nc2ccccc2)c(=O)n(C)c1=S [Control K] | Toxic | 107 | 109 | 121 |  |  |
| O=C(Nc1ccccc1)c1c(O)[nH]c(=O)[nH]c1=O [Control B] |  | 118 |  |  |  | number of mice cured (surviving after thirty day test period) (200 mg/kg i.p. daily for nine days, six mice): 2; activity in i.p.-implanted lymphoid leukemia test (in words): exhibited significant activity |
| Cn1c(=S)[nH]c(O)c(C(=O)Nc2cccc([N+](=O)[O-])c2)c1=O [Control I] |  | 102 | 98 | 102 | 112 |  |
| O=C(Nc1ccc(Cl)cc1)c1c(O)[nH]c(=S)n(-c2ccccc2)c1=O [Control Q] | Toxic | 100 |  |  |  | T/C % (survival time treated/control) [7]: 92%; T/C % (survival time treated/control) [8]: 112% |
| Cc1ccccc1NC(=O)c1c(O)[nH]c(=S)[nH]c1=O [Example 3, 1,2,3,4-tetrahydro-6-hydroxy-N-(2-methylphenyl)-4-oxo-2-thioxo-5-pyrimidine-carboxamide] | Toxic | 108 | 112 |  |  |  |
| Cn1c(=S)[nH]c(O)c(C(=O)Nc2cccc([N+](=O)[O-])c2)c1=O [Control J] | 101% |  |  |  |  | T/C % (survival time treated/control) [9]: 100%; T/C % (survival time treated/control) [7]: 94%; T/C % (survival time treated/control) [8]: 104% |
| O=c1[nH]c(O)c(C(=S)Nc2ccccc2)c(=O)[nH]1 [Control X] |  | 105 | 98 | 97 | 104 |  |
| Cn1c(=S)[nH]c(O)c(C(=O)Nc2ccccc2)c1=O [Control G] | Toxic | 94 | 98 | 87 |  |  |
| O=C(Nc1ccc(Cl)cc1)c1c(O)[nH]c(=S)[nH]c1=O [Control A] | Toxic | 110 | 121 | 125 |  | T/C (3LE31, upon further testing): less than 125%; activity in i.p.-implanted lymphoid leukemia test (in words): inactive |
| COc1ccc(NC(=O)c2c(O)[nH]c(=S)[nH]c2=O)cc1 [Example 6, 1,2,3,4-tetrahydro-6-hydroxy-N-(4-methoxyphenyl)-4-oxo-2-thioxo-5-pyrimidinecarboxamide] |  | 112 | 108 | 104 | 127 | response vs control in vivo at 400 mg/kg [5]: 127% |
| Cn1c(=S)[nH]c(O)c(C(=O)Nc2ccccc2)c1=O [Control H] | Toxic |  |  |  |  | T/C % (survival time treated/control) [9]: Toxic; T/C % (survival time treated/control) [7]: Toxic; T/C % (survival time treated/control) [8]: Toxic; response vs control in vivo at 1.56 mg/kg (Mus musculus, L1210, ip, 1.56 mg/kg i.p. daily for nine days, read-out: T/C % (survival time treated/control)): 97%; response vs control in vivo at 3.12 mg/kg (Mus musculus, L1210, ip, 3.12 mg/kg i.p. daily for nine days, read-out: T/C % (survival time treated/control)): 98%; response vs control in vivo at 6.25 mg/kg [10]: 98%; response vs control in vivo at 12.5 mg/kg [10]: 98% |
| Cc1ccccc1NC(=O)c1c(O)[nH]c(=O)[nH]c1=O [Control D] |  | 108 | 104 | 106 | 124 |  |
| Cc1ccc(C)c(NC(=O)c2c(O)n(C)c(=S)n(C)c2=O)c1 [Control N] | Toxic | 103 |  |  |  | T/C % (survival time treated/control) [7]: Toxic; T/C % (survival time treated/control) [8]: Toxic |
| COc1ccc(C)cc1NC(=O)c1c(O)[nH]c(=S)[nH]c1=O [Example 10, 1,2,3,4-tethydro-6-hydroxy-N-(2-methoxy-5-methylphenyl)-4-oxo-2-thioxo-5-pyrimidinecarboxamide] |  | 110 | 130 | 113 | 113 |  |
| O=C(Nc1ccc(F)cc1F)c1c(O)[nH]c(=S)[nH]c1=O [Example 9, N-(2,4-difluorophenyl)-1,2,3,4-tetrahydro-6-hydroxy-4-oxo-1-thioxo-5-pyrimidinecarboxamide] |  | 113 | 113 | 114 | 133 |  |
| COC(=O)c1ccccc1NC(=O)c1c(O)n(-c2ccccc2)c(=S)n(-c2ccccc2)c1=O [Control V] | Toxic | 102 | 106 |  |  | T/C % (survival time treated/control) [8]: Toxic |
| Cn1c(O)c(C(=O)Nc2ccc(Cl)cc2)c(=O)n(C)c1=S [Control M] | Toxic |  |  |  |  | T/C % (survival time treated/control) [9]: Toxic; T/C % (survival time treated/control) [7]: Toxic; T/C % (survival time treated/control) [8]: Toxic; response vs control in vivo at 1.5 mg/kg (Mus musculus, L1210, ip, 1.5 mg/kg i.p. daily for nine days, read-out: T/C % (survival time treated/control)): 106%; response vs control in vivo at 3 mg/kg (Mus musculus, L1210, ip, 3 mg/kg i.p. daily for nine days, read-out: T/C % (survival time treated/control)): 92%; response vs control in vivo at 6 mg/kg (Mus musculus, L1210, ip, 6 mg/kg i.p. daily for nine days, read-out: T/C % (survival time treated/control)): 95%; response vs control in vivo at 12 mg/kg (Mus musculus, L1210, ip, 12 mg/kg i.p. daily for nine days, read-out: T/C % (survival time treated/control)): 106%; response vs control in vivo at 0.75 mg/kg (Mus musculus, L1210, ip, .75 mg/kg i.p. daily for nine days, read-out: T/C % (survival time treated/control)): 102% |
| O=C(Nc1ccc(Cl)cc1)c1c(O)[nH]c(=S)n(-c2ccccc2)c1=O [Control R] | Toxic |  |  |  |  | T/C % (survival time treated/control) [9]: 106%; T/C % (survival time treated/control) [7]: 121%; T/C % (survival time treated/control) [8]: 88% |
| O=C(Nc1ccccc1)c1c(O)n(-c2ccccc2)c(=S)n(-c2ccccc2)c1=O [Control T] |  |  |  |  |  | T/C % (survival time treated/control) [9]: 102%; T/C % (survival time treated/control) [7]: 109%; T/C % (survival time treated/control) (400 mg/kg i.p. daily for nine days): 109% |
| CCOc1ccc(NC(=O)c2c(O)[nH]c(=S)[nH]c2=O)cc1 [Example 7, N-(4-ethoxyphenyl)-1,2,3,4-tetrahydro-6-hydroxy-4-oxo-2-thioxo-5-pyrimidinecarboxamide] | Toxic | 115 |  | 178 |  | response vs control in vivo at 6.25 mg/kg [10]: 102%; response vs control in vivo at 12.5 mg/kg [10]: 97% |
